SMILES strings stand for the structures. Some results are limits rather than exact numbers.

In the assay the target is recombinant human GST-Syk (Homo sapiens (Human), UniProt P43405). As to the kind of experiment: Homogeneous Time-Resolved Fluorescence (HTRF) assay for the recombinant human Syk enzyme. In kind it is biochemical. Particulars: recombinant human GST-Syk 5 pM, ATP 25 μM, read-out: rhSyk IC50. The procedure, abridged: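 HTRF read-out of phosphorylation of a biotinylated Syk-site peptide (250 nM final) by a GST-tagged human Syk fusion. Reaction initiated with ATP at 25 μM final plus 5 mM magnesium final. Compound potency taken from inhibition of human Syk activity.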
For orientation: Time-resolved FRET reads energy transfer from a long-lived donor to a nearby acceptor.

The IC50 is the concentration that gives 50% inhibition. For the compound `COC(=O)C1CCC(C(O)(c2ccc(-c3cc(C)cc(Nc4cc(C(F)(F)F)ccn4)n3)cn2)C2CC2)CC1` (centres unmarked) [Example 1-17], the IC50 worked out at 16 nM.

On to `Cc1cc(Nc2cc(C(F)(F)F)ccn2)nc(-c2ccc(C3(O)CCC(C(=O)O)CC3)nc2)c1` (centres unmarked) [Example 1-18], for which the IC50 worked out at 1 nM. As for `Cc1cc(Nc2cc(C(F)(F)F)ccn2)nc(-c2ccc(C3(O)CCC(C(=O)O)CC3)nc2)c1` (centres unmarked) [Example 1-19], the IC50 turned out to be 3 nM. `Cc1cc(Nc2cc(C(F)(F)F)ccn2)nc(-c2ccc(C3(O)CCCc4cc(C(=O)O)ccc43)nc2)c1` (centres unmarked) [Example 1-21]: the IC50 stood at 2 nM.

Consider `Cc1cc(Nc2cc(C(F)(F)F)ccn2)nc(-c2ccc(C3(O)CCCc4cc(C(=O)O)ccc43)nc2)c1` (centres unmarked) [Example 1-22], for which the half-inhibitory concentration (IC50) came out at 1 nM. Take `Cc1cc(Nc2cc(C(F)(F)F)ccn2)nc(-c2ccc(C3(O)CCC(C(=O)O)C(C)(C)C3)nc2)c1` (centres unmarked) [Example 1-23]: the IC50 amounted to 29 nM. As to `Cc1cc(Nc2cc(C(F)(F)F)ccn2)nc(-c2ccc(C3(O)CCC(C(=O)O)C(C)(C)C3)nc2)c1` (centres unmarked) [Example 1-24], the concentration for half-maximal inhibition (IC50) worked out at 8 nM. `Cc1cc(Nc2cc(C(F)(F)F)ccn2)nc(-c2ccc(C3(O)CCC(C(=O)O)C(C)(C)C3)nc2)c1` (centres unmarked) [Example 1-25]: the IC50 was found to be 1 nM.

In the case of `Cc1cc(Nc2cc(C(F)(F)F)ccn2)nc(-c2ccc(C3(O)CCC(C(=O)O)C(C)(C)C3)nc2)c1` (centres unmarked) [Example 1-26], the IC50 amounted to 1 nM. As to `CCC(O)(c1ccc(-c2cc(C)cc(Nc3cc(C(F)(F)F)ccn3)n2)cn1)C1CCC(C(=O)O)CC1` (centres unmarked) [Example 1-30], the IC50 was under 0.5 nM.

With `Cc1cc(Nc2cc(C(F)(F)F)ccn2)nc(-c2ccc(C(O)(C3CCC(C(=O)O)CC3)C3CC3)nc2)c1` (centres unmarked) [Example 1-31], the IC50 is under 0.5 nM. Take `Cc1cc(Nc2cc(C3CC3)ccn2)nc(-c2ccc(C(C)(O)C3CCC(C(=O)O)CC3)nc2)c1` (centres unmarked) [Example 1-32]: the IC50 turned out to be 1 nM.

With `CC(O)(c1ccc(-c2cc(C3CC3)cc(Nc3cc(C(F)F)ccn3)n2)cn1)C1CCC(C(=O)O)CC1` (centres unmarked) [Example 1-33], the IC50 is under 0.5 nM.

Turning to `CC(C)(O)c1cc(Nc2cc(C(F)F)ccn2)nc(-c2ccc(C(C)(O)C3CCC(C(=O)O)CC3)nc2)c1` (centres unmarked) [Example 1-34], the concentration for half-maximal inhibition (IC50) is 1 nM. As to `Cc1cc(Nc2cc(C(F)F)ccn2)nc(-c2ccc(C(C)(O)C3CCC(C(=O)O)C(C)C3)nc2)c1` (centres unmarked) [Example 1-35], the concentration for half-maximal inhibition (IC50) is under 0.5 nM. In the case of `Nc1cc(Nc2cc(C(F)(F)F)ccn2)nc(-c2ccc(NC3CCNC3=O)nc2)c1` (centres unmarked) [Example 2, 3-[(4-Amino-6-{[4-(trifluoromethyl)pyridin-2-yl]amino}-2,3′-bipyridin-6′-yl)amino]pyrrolidin-2-one], the IC50 was 4 nM. Turning to `Cc1cc(Nc2cc(C(F)(F)F)ccn2)nc(-c2ccc(N3CCCC(NC(=O)OC(C)(C)C)C3)nc2)c1` (centres unmarked) [Example 2-2], the IC50 was 271 nM.

On to `Cc1cc(Nc2cc(C(F)(F)F)ccn2)nc(-c2ccc(N3CCC(NC(=O)OC(C)(C)C)C3)nc2)c1` (centres unmarked) [Example 2-3], for which the half-maximal inhibitory concentration (IC50) worked out at 248 nM. For the compound `Cc1cc(Nc2cc(C(F)(F)F)ccn2)nc(-c2ccc(NC3CCN(C(=O)OC(C)(C)C)CC3)nc2)c1` [Example 2-4], the IC50 turned out to be 91 nM. With `Cc1cc(Nc2cc(C(F)(F)F)ccn2)nc(-c2ccc(NC3CCNC3=O)nc2)c1` (centres unmarked) [Example 2-9], the IC50 was 4 nM. On to `Cc1cc(Nc2cc(C(F)(F)F)ccn2)nc(-c2ccc(N3CCCC3C(=O)O)nc2)c1` (centres unmarked) [Example 2-10], for which the IC50 was determined as 3 nM. Consider `Cc1cc(Nc2cc(C(F)(F)F)ccn2)nc(-c2ccc(N3CCC3C(=O)O)nc2)c1` (centres unmarked) [Example 2-11], for which the IC50 stood at 3 nM. As for `Cc1cc(Nc2cc(C(F)(F)F)ccn2)nc(-c2ccc(NC3CCNC3=O)nc2)c1` (centres unmarked) [Example 2-16], the figure is 6 nM. On to `Cc1cc(Nc2cc(C(F)(F)F)ccn2)nc(-c2ccc(N3CCCC3C(=O)O)nc2)c1` (centres unmarked) [Example 2-17], for which the IC50 amounted to 39 nM.

For `Cc1cc(Nc2cc(C(F)(F)F)ccn2)nc(-c2ccc(N3CCC3C(=O)O)nc2)c1` (centres unmarked) [Example 2-18], the IC50 was found to be 33 nM. On to `Cc1cc(Nc2cc(C(F)(F)F)ccn2)nc(-c2ccc(NC(C)(C)C(=O)O)nc2)c1` [Example 2-19], for which the IC50 was determined as 19 nM. Take `Cc1cc(Nc2cc(C(F)(F)F)ccn2)nc(-c2ccc(N3CCN(C(=O)N4CCCC(C(=O)O)C4)CC3)nc2)c1` (centres unmarked) [Example 2-20]: the IC50 was found to be 2 nM. `Cc1cc(Nc2cc(C(F)(F)F)ccn2)nc(-c2ccc(N3CC(C4CCCC(C(=O)O)C4)C3)nc2)c1` (centres unmarked) [Example 2-21]: the half-maximal inhibitory concentration (IC50) was 2 nM. `Cc1cc(Nc2cc(C(F)(F)F)ccn2)nc(-c2ccc(N3CC(C4CCC(C(=O)O)CC4)C3)nc2)c1` (centres unmarked) [Example 2-22]: the IC50 came out at 3 nM.

Turning to `Cc1cc(Nc2cc(C(F)(F)F)ccn2)nc(-c2ccc(NCC3CCC(C(=O)O)CC3)nc2)c1` (centres unmarked) [Example 2-23], the half-inhibitory concentration (IC50) worked out at 3 nM. In the case of `Cc1cc(Nc2cc(C(F)(F)F)ccn2)nc(-c2ccc(NC3CCC(C(=O)O)CC3)nc2)c1` (centres unmarked) [Example 2-24], the IC50 is 1 nM. Regarding `Cc1cc(Nc2cc(C(F)(F)F)ccn2)nc(-c2ccc(NC3CCC(C(=O)O)CC3)nc2)c1` (centres unmarked) [Example 2-25], the IC50 was 7 nM. `Cc1cc(Nc2cc(C(F)(F)F)ccn2)nc(-c2ccc(N3CCC(C(=O)N4CCC(C(=O)O)CC4)CC3)nc2)c1` [Example 2-26]: the half-maximal inhibitory concentration (IC50) was 3 nM.

Consider `Cc1cc(Nc2cc(C(F)(F)F)ccn2)nc(-c2ccc(N3CCCC(C(=O)N4CCCC(C(=O)O)C4)C3)nc2)c1` (centres unmarked) [Example 2-27], for which the IC50 was 2 nM. As for `Cc1cc(Nc2cc(C(F)(F)F)ccn2)nc(-c2ccc(N3CCCC(C(=O)N4CCCC(C(=O)O)C4)C3)nc2)c1` (centres unmarked) [Example 2-28], the IC50 amounted to 3 nM. To `Cc1cc(Nc2cc(C(F)(F)F)ccn2)nc(-c2ccc(N3CCC4CCC(C(=O)O)CC4C3)nc2)c1` (centres unmarked) [Example 2-29] belongs 6 nM; to `Cc1cc(Nc2cc(C(F)(F)F)ccn2)nc(-c2ccc(N3CCOCC3)nc2)c1` [Example 2-30], 14 nM; to `Cc1cc(Nc2cc(C(F)(F)F)ccn2)nc(-c2ccc(OC[C@H]3CC[C@H](C(=O)O)CC3)nc2)c1` [Example 3, trans-4-{[(4-Methyl-6-{[4-(trifluoromethyl)pyridin-2-yl]amino}-2,3′-bipyridin-6′-yl)oxy]methyl}cyclohexanecarboxylic acid], 3 nM. In the case of `Cc1cc(Nc2cc(C(F)(F)F)ccn2)nc(-c2ccc(N3CCC(C4CCCCC4C(=O)O)CC3)nc2)c1` (centres unmarked) [Example 3-1], the concentration for half-maximal inhibition (IC50) was determined as 3 nM.

Turning to `Cc1cc(Nc2cc(C(F)(F)F)ccn2)nc(-c2ccc(NC3CCN(C(=O)c4cnc5ccc(F)cc5c4)CC3)nc2)c1` [Example 4, (6-Fluoroquinolin-3-yl)(4-(4-methyl-6-(4-(trifluoromethyl)pyridin-2-ylamino)-2,3′-bipyridin-6′-ylamino)piperidin-1-yl)methanone], the IC50 was 8 nM. Take `Cc1cc(Nc2cc(C(F)(F)F)ccn2)nc(-c2ccc(NC3CCN(C(=O)Cc4ccc(-c5cn[nH]c5)cc4)CC3)nc2)c1` [Example 4-1]: the IC50 worked out at 9 nM. In the case of `Cc1cc(Nc2cc(C(F)(F)F)ccn2)nc(-c2ccc(NC3CCN(C(=O)Cc4ccc5ccn(C)c5c4)CC3)nc2)c1` [Example 4-2], the IC50 amounted to 1 nM. `Cc1cc(Nc2cc(C(F)(F)F)ccn2)nc(-c2ccc(NC3CCN(C(=O)Cc4ccc5cn[nH]c5c4)CC3)nc2)c1` [Example 4-3]: the IC50 was 8 nM.

For the compound `Cc1cc(Nc2cc(C(F)(F)F)ccn2)nc(-c2ccc(NC3CCN(C(=O)c4ccc5c(c4)C(=O)NC5)CC3)nc2)c1` [Example 4-4], the IC50 was 1 nM.

For `Cc1cc(Nc2cc(C(F)(F)F)ccn2)nc(-c2ccc(NC3CCN(C(=O)c4ccc5c(c4)CNC5=O)CC3)nc2)c1` [Example 4-5], the IC50 was 2 nM. Take `Cc1cc(Nc2cc(C(F)(F)F)ccn2)nc(-c2ccc(NC3CCN(C(=O)c4[nH]c5ccccc5c4C)CC3)nc2)c1` [Example 4-6]: the IC50 stood at 22 nM. In the case of `Cc1cc(Nc2cc(C(F)(F)F)ccn2)nc(-c2ccc(NC3CCN(C(=O)c4ccc5[nH]cc(C)c5c4)CC3)nc2)c1` [Example 4-7], the IC50 is 10 nM.

As to `Cc1cc(Nc2cc(C(F)(F)F)ccn2)nc(-c2ccc(NC3CCN(C(=O)Cc4n[nH]c5ccccc45)CC3)nc2)c1` [Example 4-8], the IC50 is 7 nM. Take `Cc1cc(Nc2cc(C(F)(F)F)ccn2)nc(-c2ccc(NC3CCN(C(=O)c4cccc(-c5cn[nH]c5)c4)CC3)nc2)c1` [Example 4-9]: the IC50 is 12 nM. With `Cc1cc(Nc2cc(C(F)(F)F)ccn2)nc(-c2ccc(NC3CCN(C(=O)c4cc(-c5ccccc5)n[nH]4)CC3)nc2)c1` [Example 4-10], the IC50 came out at 14 nM. To `Cc1cc(Nc2cc(C(F)(F)F)ccn2)nc(-c2ccc(NC3CCN(C(=O)CCN4CCCC4=O)CC3)nc2)c1` [Example 4-11] belongs 2 nM; to `Cc1cc(Nc2cc(C(F)(F)F)ccn2)nc(-c2ccc(NC3CCN(C(=O)Cc4cccc5ncccc45)CC3)nc2)c1` [Example 4-12], 4 nM. As to `Cc1cc(Nc2cc(C(F)(F)F)ccn2)nc(-c2ccc(NC3CCN(C(=O)c4cccc5ncccc45)CC3)nc2)c1` [Example 4-13], the IC50 amounted to 9 nM. `Cc1cc(Nc2cc(C(F)(F)F)ccn2)nc(-c2ccc(NC3CCN(C(=O)c4ccc5sc(C)nc5c4)CC3)nc2)c1` [Example 4-14]: the IC50 worked out at 6 nM. On to `Cc1cc(Nc2cc(C(F)(F)F)ccn2)nc(-c2ccc(NC3CCN(C(=O)c4ccc5cc[nH]c5c4)CC3)nc2)c1` [Example 4-15], for which the IC50 was 7 nM.

Take `CC(=O)N1CCC(Nc2ccc(-c3cc(C)cc(Nc4cc(C(F)(F)F)ccn4)n3)cn2)CC1` [Example 4-16]: the IC50 worked out at 4 nM. For the compound `Cc1cc(Nc2cc(C(F)(F)F)ccn2)nc(-c2ccc(N3CCCC(NC(=O)c4ccc5cc[nH]c5c4)C3)nc2)c1` (centres unmarked) [Example 4-17], the IC50 was 32 nM. Turning to `CC(=O)NC1CCCN(c2ccc(-c3cc(C)cc(Nc4cc(C(F)(F)F)ccn4)n3)cn2)C1` (centres unmarked) [Example 4-18], the IC50 is 14 nM. Consider `Cc1cc(Nc2cc(C(F)(F)F)ccn2)nc(-c2ccc(NC3CCN(C(=O)c4cccc(-c5ccncc5)c4)CC3)nc2)c1` [Example 4-19], for which the IC50 was found to be 12 nM.
